Patent US20110245173A1, “Long-Acting GLP-1 Derivatives, and Methods of Treating Cardiac Dysfunction” (priority 2008, published 2011)

Legend:
[1] = Pharmacokinetics in plasma after single bolus intravenous administration to rats; set-up: species or system Sprague Dawley rats; conditions: rat, in vivo; for AUC(0-inf) / AUC(0-t) / Cmax / clearance / half-life: male, Sprague Dawley
Experimental: GLP-1 (9-36) analogues containing C-terminal extensions (FIG. 2) were tested in 9 week old male Sprague Dawley rats to evaluate biological half-life as well as other pharmacokinetic properties of the analogues. Rats used in the study were acclimated to laboratory conditions for approximately 1 week prior to testing. Polypeptide analogues were prepared as solutions for intravenous administration (bolus injection in the jugular vein) at concentrations of 0.15 mg/mL and 1.5 mg/mL in appropriate buffers. The compounds were then injected while the animals were still under anesthesia. Blood samples were taken form each animal at no more than 5 occasions. Following dose administration, blood samples (0.3 to 0.4 mL) were obtained by jugular venipuncture (lithium heparin was used as an anticoagulant) at selected time points (0, 2.5, 5, 10 and 15 minutes or 30, 45, 60, 120 and 240 minutes). The samples were analyzed for parent drug by LC-MS/MS. Numerical data was subjected to calculation of group mean values, standard deviations and coefficients of variation (expressed as a percent), where appropriate. The pharmacokinetic analysis (non-compartmental) of plasma concentration was performed using the PhAST software program (Version 2.3-004, Pheonix International Life Sciences Inc.). The highest experimental concentration was considered the peak concentration (Cmax; observed value). Whenever possible, the observed terminal phase rate constant (Kel) was calculated from the terminal 3 or more points (non-zero and non-Cmax points) of the log-linear regression. The number of points included in the regression analysis was such as to optimize r^2 value calculated for the regression. Terminal phase half-life (t1/2) was determined by dividing 0.693 by Kel. The area under the plasma concentration of each compound versus time-curve from time zero to the last quantifiable concentration (AUC0-t) was calculated by the linear trapezoidal method (Bailer, A. J., (1988) J. Pharmacokin. Biopharm., 1, 303-309). AUC0-∞, the area under the plasma concentration versus time curve from time zero to infinity, was calculated as the sum of AUC0-t plus the ratio of the last plasma concentration to Kel. Values below the limit of quantification were assigned a value of zero for pharmacokinetic analysis.

[2] = cited from earlier work

Compound: CC[C@H](C)[C@H](NC(=O)[C@H](Cc1ccccc1)NC(=O)[C@H](CCC(=O)O)NC(=O)[C@H](CCCCN)NC(=O)[C@H](C)NC(=O)[C@H](C)NC(=O)[C@H](CCC(N)=O)NC(=O)CNC(=O)[C@H](CCC(=O)O)NC(=O)[C@H](CC(C)C)NC(=O)[C@H](Cc1ccc(O)cc1)NC(=O)[C@H](CO)NC(=O)[C@H](CO)NC(=O)[C@@H](NC(=O)[C@H](CC(=O)O)NC(=O)[C@H](CO)NC(=O)[C@@H](NC(=O)[C@H](Cc1ccccc1)NC(=O)[C@@H](NC(=O)CNC(=O)[C@@H](N)CCC(=O)O)[C@@H](C)O)[C@@H](C)O)C(C)C)C(=O)N[C@@H](C)C(=O)N[C@@H](Cc1c[nH]c2ccccc12)C(=O)N[C@@H](CC(C)C)C(=O)N[C@H](C(=O)N[C@@H](CCCCN)C(=O)NCC(=O)N[C@@H](CCCNC(=N)N)C(N)=O)C(C)C [DGS70]
- AUC(0-inf) ([1]; 0.15 mg/kg): 65.1 ng·h/mL
- AUC(0-t) ([1]; 0.15 mg/kg): 63.8 ng·h/mL
- Cmax ([1]; 0.15 mg/kg): 1060 ng/mL
- clearance ([1]; 0.15 mg/kg): 38.4 mL/min/kg
- half-life ([1]; 0.15 mg/kg, T1/2: Terminal phase half-life): 1.64 min
- AUC(0-inf) ([1]; 1.5 mg/kg): 679 ng·h/mL
- AUC(0-t) ([1]; 1.5 mg/kg): 672 ng·h/mL
- Cmax ([1]; 1.5 mg/kg): 10600 ng/mL
- clearance ([1]; 1.5 mg/kg): 36.8 mL/min/kg
- half-life ([1]; 1.5 mg/kg, T1/2: Terminal phase half-life): 2.22 min
- half-life ([1]; 1.5 mg/kg, half-life): 1.6 to 2.2 min
- Tmax: Time to Cmax ([1]; 0.15 mg/kg): 2.50 min
- Tmax: Time to Cmax ([1]; 1.5 mg/kg): 2.50 min
- half-life in vivo [2]: 2 to 4 min
